Where a name gives a salt, the structure may show the parent alone. Marks after values point to notes of the source that are not given here.
Key:
C. elegans germline = assay: Size of mitotic zone of the germline (DAPI, phospho-histone H3 staining)
Source text: In C. elegans, the germline is comprised of two main compartments, a mitotic region (the premeiotic tip), where nuclei are under the influence of the distal tip cell that maintains them in a proliferative state; and the meiotic region, where nuclei progress through the stages of Prophase I before being fertilized. The mitotic compartment of the worm gonad following BPA exposure was examined.
(§1) BPA bears endocrine disrupting activity in many developmental contexts including gonadal, brain and mammary gland development. BPA has affinity for multiple members of the estrogen receptors family, in particular BPA binds to the human estrogen receptor alpha (ERα) and ERβ as well as estrogen-related receptor gamma (ERR-γ) and in C. elegans with nuclear hormone receptor NHR-14 which also binds estrogen. […] Two hallmarks of exposure to BPA were examined, the decrease in the size of the proliferative zone and the condensation defects observed at diakinesis, as they are both highly penetrant and consistent phenotypes. […] Similarly to the experiments described above, the size of the mitotic zone was quantified as well as condensation defects at diakinesis.
Growing Conditions and Drug Exposures. Worms were cultured according to [23] at 20° C. on NGM plates without cholesterol. […] Exposure was carried from embryogenesis to adulthood by plating sodium hypochloride treated eggs onto drug and control plates and incubated at 20° C. for four days.
Antibody Staining. DAN staining, immunostaining and analysis of stained meiotic nuclei were performed as in [25] except for ATL-1 and AIR-2 antibodies were dissected gonads were subjected to a 1% fixation method as described in [27]. […] The secondary antibodies used were: Cy3 anti-rabbit, FITC anti-guinea-pig and FITC anti-mouse (Jackson Immunochemicals), each at 1:100, Stacks of 0.2 μm slices were captured using a Leica microscope, coupled to the DeltaVision fluorescence microscope system (Applied Precision). […]

xol-1::GFP worms = assay: xol-1::GFP reporter assay for male (aneuploid) embryos; details: for male embryos in adult mid-ventral sections: 0.1 mg/ml in liquid culture, added 1 day post-L4 for 20 hours; for frequency of xol-1::GFP worms containing GFP+ eggs: 0.1 mg/ml, preliminary analysis
Experimental: In one embodiment of the invention, synchronized cultures of worms are grown for the desired developmental period (e.g., from eggs to adulthood, 4 days) on multiwell plates (e.g., 96-well plates) containing media mixed with the compound of interest at the concentration of interest (e.g., 1 μM and 100 μM). The concentrations can be adjusted if necessary to compensate for solubility differences. Following exposure, the worms are washed off the plate with a physiological buffer and then run through a high-throughput flow cytometry device (e.g., the COPAS Biosort). With this automated nematode analysis, sorting, and dispensing platform (Furlong et al., Nat Biotechnol. 2001; 19(2):153-6; Gill et al., Free Radic Biol Med. 2003; 35(6):558-65; Rea et al., Nat Genet. 2005; 37(8):894-8. PMCID: 1479894) one 96-well plate can be screened per hour. In one embodiment, test wells are alternated with mock wells to flush the equipment in order to avoid cross-contamination. […] The worm sorter not only directs the sorting of GFP positive worms from GFP negative ones but when coupled to the Profiler analysis software, also allows for the localization of the fluorescence within the worm. In one embodiment, scoring is for GFP positive eggs present in the animal's mid-ventral section (uterus), therefore, any worms showing mis-localized GFP expression will be discarded thus improving the accuracy of the screen. Positive controls used for the screen can include colchicine and nocodazole, both described as disruptors of spindle organization and therefore of chromosome segregation (Sato A, et al., Cell. 2009; 139(5):907-19; Stear et al., Mol Biol Cell. 2004; 15(11):5187-96. PMCID: 524797).
Worms are grown from eggs to adulthood (4 days) on 96-well plates containing media mixed with the compound of interest. Initially, two different concentrations are assayed, 1 μM and 100 μM, concentrations previously used in the context of other C. elegans toxicological screens (Boyd, McBride and Freedman, 2007; Boyd et al, 2009).
Following exposure, the worms are washed off the plate with buffer and run through a high-throughput flow cytometry device, commonly known as a “worm sorter” (COPAS-Biosort from Union Biometrica). The worm sorter not only directs the sorting of GFP positive worms from GFP negative ones but when coupled to the Profiler analysis software, also allows for the localization of the fluorescence within the worm. Scoring in the screen, is for GFP positive eggs present in the animal's mid-ventral section (uterus), therefore, any worms showing mis-localized GFP expression are discounted thus improving the accuracy of the screen.
The xol-1::GFP reporter strain was tested for meiotic disruption by addition of an external agent, by exposing the C. elegans to several cell cycle disruptors (microtubule disrupting agents) dissolved in DMSO, DMSO alone was used as a negative control. Each individual test agent was added to the liquid culture medium of the C. elegans at 1 day post-L4 (4 days of development) for a total of 20 hours. The C. elegans was then analyzed for the percentage of male embryos in the adult-midventral sections. Nocodazol was added to the medium at a final concentration of 0.1 mg/ml.
Adult xol-1::GFP worms were exposed to 100 μM nocodazole for 24 hours in liquid culture and the presence of GFP+ embryos in the uterus of exposed worms was monitored.
The effect of selected chemotherapeutic agents on the generation of aneuploidies was analyzed. xol-1::GFP adult worms were exposed to the compounds at a concentration of 100 μM for 24 hours in liquid culture in triplicates.
Each well contained 750 μl of M9, the drug at a final concentration of 100 μM, concentrated bacteria and young adults+eggs. The cultures were examined at 24 hours and 4 days.

[1] = test system: C. elegans diakinesis oocytes; assay: Diakinesis oocyte analysis (chromosome condensation, SYP-1, AIR-2, pH3); details: 1 mM E2; […] 4-HT
Source text: Proper processing of recombination events is coupled with the formation of mature bivalents during the diakinesis stage such that in mutants where recombination intermediate processing is impaired, bivalent maturation is delayed.
Associated with the changes in chromatin morphology, the SC is disassembled during late diakinesis in a tightly controlled fashion. Accordingly, SC components, such as SYP-1, are detectable on the short arms of the bivalent in the −3 oocyte but are essentially absent from the bivalents of −2 and −1 oocytes. Thus, whether a delay in chromosome remodeling could correlate with an incomplete disassembly of SC components in late diakinesis was examined.
Accurate chromosome segregation at meiosis I is characterized by the carefully orchestrated loss of cohesion between homologs coupled with retention of cohesion between sister chromatids. This regulated process involves the targeting of the Aurora-B kinase AIR-2, a member of the chromosomal passenger complex, to the short arm of the bivalents in the −1 oocyte which has been proposed to lead to the removal the meiosis-specific cohesin REC-8 from the short arms of the bivalent. To examine whether these key steps in late meiotic prophase I might be impaired in BPA treated gonads, the localization of AIR-2 in the −1 oocytes was examined. […] Phospho histone H3 (pH3) is a canonical substrate for the activity of AIR-2 [59] and accordingly, although it accumulates in the −3 to −1 oocytes, it is only detected on the short arms of the bivalent in the −1 oocyte in the presence of AIR-2 [56, 57].
as §1
Antibody Staining. DAN staining, immunostaining and analysis of stained meiotic nuclei were performed as in [25] except for ATL-1 and AIR-2 antibodies were dissected gonads were subjected to a 1% fixation method as described in [27]. Antibodies were used at the following dilutions: rabbit α-SYP-1 (1:100), mouse α-RAD-51 (1:100), rabbit α-HTP-3 (1:500), guinea pig α-HIM-8 (1:100), rabbit α-ATL-1 (1:50), rabbit α-AIR-2 (1:100) and rabbit α-pCHK-1 (1:100). The secondary antibodies used were: Cy3 anti-rabbit, FITC anti-guinea-pig and FITC anti-mouse (Jackson Immunochemicals), each at 1:100, Stacks of 0.2 μm slices were captured using a Leica microscope, coupled to the DeltaVision fluorescence microscope system (Applied Precision). The images were projections approximately halfway through 3D data stacks of whole nuclei, except for diakinesis images which encompass entire nuclei.

xol-1::LUC = assay: xol-1::luciferase reporter induction; format: in vivo, C. elegans; details: 1 μM or 100 μM for 24 hours, preliminary experiment
[2] = xol-1::GFP, C. elegans, in vivo, 24 hours, 100 μM
[3] = average over the chemicals of the category, 100 μM, 24 hours, liquid culture, triplicates

## 4-hydroxy-tamoxifen [4-HT]
C. elegans germline; 4 days exposure, BPA 1 mM, 4-HT […]
  pH3 positive nuclei in mitotic zone vs control: two-fold decrease

## Oc1ncnc2[nH]ncc12 [Allopurinol]
xol-1::GFP worms; [2]
  Average % of worms with 1 or more GFP embryos/category: 0.6%

## C[C@]12CC[C@@H]3c4ccc(O)cc4CC[C@H]3[C@@H]1CC[C@@H]2O [E2, estradiol]
C. elegans germline; 1 mM E2 for 4 days, DAPI staining
  increase in the number of nuclei comprising the mitotic region vs ethanol: 13%
[1]
  bivalent maturation / condensation defects at diakinesis: did not cause any observable bivalent maturation defects

## CC[C@@]1(O)C(=O)OCc2c1cc1n(c2=O)Cc2cc3c(CN(C)C)c(O)ccc3nc2-1 [Topotecan HCl]
xol-1::GFP worms; [2]
  Average % of worms with 1 or more GFP embryos/category: 3.77% *

## CC[C@]1(O)C[C@@H]2CN(CCc3c([nH]c4ccccc34)[C@@](C(=O)OC)(c3cc4c(cc3OC)N(C)[C@H]3[C@@](O)(C(=O)OC)[C@H](OC(C)=O)[C@]5(CC)C=CCN6CC[C@]43[C@@H]65)C2)C1 [Vinblastine]
xol-1::GFP worms; [2]
  Average % of worms with 1 or more GFP embryos/category: 23.3% *

## CC[C@]1(O)C[C@H]2CN(CCc3c([nH]c4ccccc34)[C@@](C(=O)OC)(c3cc4c(cc3OC)N(C=O)[C@H]3[C@@](O)(C(=O)OC)[C@H](OC(C)=O)[C@]5(CC)C=CCN6CC[C@]43[C@@H]65)C2)C1 [Vincristine sulfate]
xol-1::GFP worms; [3]
  Average % of worms with 1 or more GFP embryos/category: 23.3% *

## CN[C@H]1CCc2cc(OC)c(OC)c(OC)c2-c2ccc(OC)c(=O)cc21 [demecolcine]
xol-1::GFP worms
  male embryos in adult mid-ventral sections: 2.7%
  frequency of xol-1::GFP worms containing GFP+ eggs: 3/66

## COC(=O)Nc1nc2ccc(C(=O)c3cccs3)cc2[nH]1 [nocodazole]
xol-1::GFP worms
  male embryos in adult mid-ventral sections: 37%
  frequency of xol-1::GFP worms containing GFP+ eggs: 6/16
xol-1::GFP worms; adult worms, 100 μM, 24 hours, liquid culture
  worms with at least one GFP+ embryo: 55%
xol-1::GFP worms; [3]
  Average % of worms with 1 or more GFP embryos/category: 23.3% *
xol-1::LUC
  induction of luciferase compared to DMSO: significant induction

## Triethylene melamine
xol-1::GFP worms; [3]
  Average % of worms with 1 or more GFP embryos/category: 3.77% *
